molecular target: T1, human Npt2a (Homo sapiens, UniProt Q06495); assay: Npt2a activity cell based assay, membrane potential dye, CHO T-REx hNpt2a cells; conditions: doxycycline-induced, depolarization by sodium phosphate influx, average or median values if tested more than once
T1 construct: expressed in transfected cells
T1 sequence (Q06495 1-639): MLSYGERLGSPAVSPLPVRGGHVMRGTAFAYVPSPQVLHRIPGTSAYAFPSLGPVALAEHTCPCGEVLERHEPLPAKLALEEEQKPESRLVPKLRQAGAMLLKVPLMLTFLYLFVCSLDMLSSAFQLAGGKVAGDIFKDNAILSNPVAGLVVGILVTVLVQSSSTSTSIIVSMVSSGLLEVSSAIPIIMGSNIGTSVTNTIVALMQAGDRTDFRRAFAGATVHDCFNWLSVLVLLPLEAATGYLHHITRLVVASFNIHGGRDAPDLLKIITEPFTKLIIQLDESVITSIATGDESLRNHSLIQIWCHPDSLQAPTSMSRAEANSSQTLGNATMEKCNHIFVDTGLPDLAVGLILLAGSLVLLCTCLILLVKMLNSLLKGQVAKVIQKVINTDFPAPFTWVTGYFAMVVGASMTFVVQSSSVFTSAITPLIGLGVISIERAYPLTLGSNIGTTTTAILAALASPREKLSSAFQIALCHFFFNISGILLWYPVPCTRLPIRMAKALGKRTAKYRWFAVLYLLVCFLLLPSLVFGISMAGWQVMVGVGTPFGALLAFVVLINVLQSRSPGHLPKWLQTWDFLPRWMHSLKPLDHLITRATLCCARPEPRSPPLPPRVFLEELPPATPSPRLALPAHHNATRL
Summary of the method: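 Cells were doxycycline-induced CHO T-REx hNpt2a, dye-loaded and pretreated 5 min at RT with 1 nM–50 μM compound in Na-free pH 7.4 buffer. IC50 was fit to the post/pre-trigger fluorescence ratio.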

| Compound | IC50 |
| --- | --- |
| CCOC(=O)c1c(C)nn(-c2cc(Nc3nn(C)c(-c4ccc(F)cc4)c3C)ncn2)c1C [Example 61, ethyl 1-(6-{[5-(4-fluorophenyl)-1,4-dimethyl-1H-pyrazol-3-yl]amino}pyrimidin-4-yl)-3,5-dimethyl-1H-pyrazole-4-carboxylate] | 4.4 nM |
| Cc1cc(C)n(-c2cc(Nc3nn(C)c(-c4ccccc4)c3C)ncn2)n1 [Example 62, N-(1,4-dimethyl-5-phenyl-1H-pyrazol-3-yl)-6-(3,5-dimethyl-1H-pyrazol-1-yl)pyrimidin-4-amine] | 135 nM |
| Cc1nn(-c2cc(Nc3c(C)nn(-c4ccc(F)cc4)c3C)ncn2)c(C)c1Cl [Example 63, 6-(4-chloro-3,5-dimethyl-1H-pyrazol-1-yl)-N-[1-(4-fluorophenyl)-3,5-dimethyl-1H-pyrazol-4-yl]pyrimidin-4-amine] | 7.65 nM |
| CCc1c(Nc2cc(-n3nc(C)cc3C(F)F)ncn2)nn(C)c1-c1ccc(F)cc1 [Example 64, 6-[5-(difluoromethyl)-3-methyl-1H-pyrazol-1-yl]-N-[4-ethyl-5-(4-fluorophenyl)-1-methyl-1H-pyrazol-3-yl]pyrimidin-4-amine] | 6.25 nM |
| Cc1cc(C(F)F)n(-c2cc(Nc3n[nH]c(-c4ccc(F)cc4)c3C)ncn2)n1 [Example 66, 6-[5-(difluoromethyl)-3-methyl-1H-pyrazol-1-yl]-N-[5-(4-fluorophenyl)-4-methyl-1H-pyrazol-3-yl]pyrimidin-4-amine] | 87 nM |
| Cc1nn(-c2cc(Nc3nn(C)c(-c4ccc(F)cc4)c3C)ncn2)c(C)c1Cl [Example 67, 6-(4-chloro-3,5-dimethyl-1H-pyrazol-1-yl)-N-[5-(4-fluorophenyl)-1,4-dimethyl-1H-pyrazol-3-yl]pyrimidin-4-amine] | 3.45 nM |
| Cc1nn(-c2cc(Nc3c(C)c(-c4ccc(F)cc4)nn3C)ncn2)c(C)c1Cl [Example 68, 6-(4-chloro-3,5-dimethyl-1H-pyrazol-1-yl)-N-[3-(4-fluorophenyl)-1,4-dimethyl-1H-pyrazol-5-yl]pyrimidin-4-amine] | 31.5 nM |
| Cc1cc(C(F)F)n(-c2cc(Nc3nn(C)c(-c4ccc(F)cc4)c3C)ncn2)n1 [Example 69, 6-[5-(difluoromethyl)-3-methyl-1H-pyrazol-1-yl]-N-[5-(4-fluorophenyl)-1,4-dimethyl-1H-pyrazol-3-yl]pyrimidin-4-amine] | 8.4 nM |
| Cc1cc(C(F)F)n(-c2cc(Nc3c(C)c(-c4ccc(F)cc4)nn3C)ncn2)n1 [Example 70, 6-[5-(difluoromethyl)-3-methyl-1H-pyrazol-1-yl]-N-[3-(4-fluorophenyl)-1,4-dimethyl-1H-pyrazol-5-yl]pyrimidin-4-amine] | 36 nM |
| Cc1cc(C)n(-c2cc(Nc3c(C)c(-c4ccc(F)cc4)nn3C)ncn2)n1 [Example 71, 6-(3,5-dimethyl-1H-pyrazol-1-yl)-N-[3-(4-fluorophenyl)-1,4-dimethyl-1H-pyrazol-5-yl]pyrimidin-4-amine] | 50 nM |
| Cc1nn(-c2cc(Nc3n[nH]c(-c4ccc(F)cc4)c3C)ncn2)c(C)c1Cl [Example 72, 6-(4-chloro-3,5-dimethyl-1H-pyrazol-1-yl)-N-[5-(4-fluorophenyl)-4-methyl-1H-pyrazol-3-yl]pyrimidin-4-amine] | 15.4 nM |
| Cc1cc(C)n(-c2cc(Nc3nn(C)c(-c4ccc(F)cc4)c3C)ncn2)n1 [Example 73, 6-(3,5-dimethyl-1H-pyrazol-1-yl)-N-[5-(4-fluorophenyl)-1,4-dimethyl-1H-pyrazol-3-yl]pyrimidin-4-amine] | 15.7 nM |
| Cc1cc(C)n(-c2cc(Nc3c(C)c(-c4ccccc4)nn3C)ncn2)n1 [Example 75, N-(1,4-dimethyl-3-phenyl-1H-pyrazol-5-yl)-6-(3,5-dimethyl-1H-pyrazol-1-yl)pyrimidin-4-amine] | 42 nM |
| Cc1cc(C)n(-c2cc(Nc3cn(-c4ccc(F)cc4)nc3C)ncn2)n1 [Example 77, 6-(3,5-dimethyl-1H-pyrazol-1-yl)-N-[1-(4-fluorophenyl)-3-methyl-1H-pyrazol-4-yl]pyrimidin-4-amine] | 2230 nM |
| Cc1cc(C)n(-c2cc(Nc3c(C)nn(-c4ccc(F)cc4)c3C)ncn2)n1 [Example 78, 6-(3,5-dimethyl-1H-pyrazol-1-yl)-N-[1-(4-fluorophenyl)-3,5-dimethyl-1H-pyrazol-4-yl]pyrimidin-4-amine] | 247 nM |
| CCOC(=O)c1c(C)nn(-c2cc(Nc3c(Cl)c(-c4ccccc4)nn3C)ncn2)c1C [Example 79, ethyl 1-{6-[(4-chloro-1-methyl-3-phenyl-1H-pyrazol-5-yl)amino]pyrimidin-4-yl}-3,5-dimethyl-1H-pyrazole-4-carboxylate] | 31 nM |

| Compound | IC50 |
| --- | --- |
| Cc1nn(-c2cc(Nc3c(Cl)c(-c4ccccc4)nn3C)ncn2)c(C)c1Cl [Example 80, 6-(4-chloro-3,5-dimethyl-1H-pyrazol-1-yl)-N-(4-chloro-1-methyl-3-phenyl-1H-pyrazol-5-yl)pyrimidin-4-amine] | 44 nM |
| CCOC(=O)c1c(C)nn(-c2cc(Nc3nn(C)c(-c4ccccc4)c3Cl)ncn2)c1C [Example 81, ethyl 1-{6-[(4-chloro-1-methyl-5-phenyl-1H-pyrazol-3-yl)amino]pyrimidin-4-yl}-3,5-dimethyl-1H-pyrazole-4-carboxylate] | 11 nM |
| CC(=O)c1c(Nc2cc(-n3nc(C)cc3C)ncn2)nn(C)c1-c1ccc(F)cc1 [Example 82, 1-[3-{[6-(3,5-dimethyl-1H-pyrazol-1-yl)pyrimidin-4-yl]amino}-5-(4-fluorophenyl)-1-methyl-1H-pyrazol-4-yl]ethanone] | 1500 nM |
| CCOC(=O)c1cc(C)n(-c2cc(Nc3nn(C)c(-c4ccc(F)cc4)c3CC)ncn2)n1 [Example 83, ethyl 1-(6-{[4-ethyl-5-(4-fluorophenyl)-1-methyl-1H-pyrazol-3-yl]amino}pyrimidin-4-yl)-5-methyl-1H-pyrazole-3-carboxylate] | 1300 nM |
| Cc1nn(-c2cc(Nc3nn(C)c(-c4ccccc4)c3C)ncn2)c(C)c1Cl [Example 84, 6-(4-chloro-3,5-dimethyl-1H-pyrazol-yl)-N-(1,4-dimethyl-5-phenyl-1H-pyrazol-3-yl)pyrimidin-4-amine] | 75.5 nM |
| CCc1c(Nc2cc(-n3nc(C)c(C(=O)N4CC(F)(C(F)(F)F)C4)c3C)ncn2)nn(C)c1-c1ccc(F)cc1 [Example 85, [1-(6-{[4-ethyl-5-(4-fluorophenyl)-1-methyl-1H-pyrazol-3-yl]amino}pyrimidin-4-yl)-3,5-dimethyl-1H-pyrazol-4-yl][3-fluoro-3-(trifluoromethyl)azetidin-1-yl]methanone] | 130 nM |
| Cc1nn(-c2cc(Nc3c(C)c(-c4ccccc4)nn3C)ncn2)c(C)c1Cl [Example 86, 6-(4-chloro-3,5-dimethyl-1H-pyrazol-1-yl)-N-(1,4-dimethyl-3-phenyl-1H-pyrazol-5-yl)pyrimidin-4-amine] | 50 nM |
| CCOC(=O)Cc1c(C)nn(-c2cc(Nc3nn(C)c(-c4ccc(F)cc4)c3CC)ncn2)c1C [Example 87, ethyl [1-(6-{[4-ethyl-5-(4-fluorophenyl)-1-methyl-1H-pyrazol-3-yl]amino}pyrimidin-4-yl)-3,5-dimethyl-1H-pyrazol-4-yl]acetate] | 32 nM |
| Cc1nn(-c2cc(Nc3c(Cl)c(-c4ccc(F)cc4)nn3C)ncn2)c(C)c1Cl [Example 88, 6-(4-chloro-3,5-dimethyl-1H-pyrazol-1-yl)-N-[4-chloro-3-(4-fluorophenyl)-1-methyl-1H-pyrazol-5-yl]pyrimidin-4-amine] | 28.5 nM |
| Cc1nn(-c2cc(Nc3nn(C)c(-c4ccc(F)cc4)c3Cl)ncn2)c(C)c1Cl [Example 89, 6-(4-chloro-3,5-dimethyl-1H-pyrazol-1-yl)-N-[4-chloro-5-(4-fluorophenyl)-1-methyl-1H-pyrazol-3-yl]pyrimidin-4-amine] | 4.8 nM |
| Cc1cc(C)n(-c2cc(Nc3c(Cl)c(-c4ccc(F)cc4)nn3C)ncn2)n1 [Example 90, N-[4-chloro-3-(4-fluorophenyl)-1-methyl-1H-pyrazol-5-yl]-6-(3,5-dimethyl-1H-pyrazol-1-yl)pyrimidin-4-amine] | 133 nM |
| Cc1cc(C)n(-c2cc(Nc3nn(C)c(-c4ccc(F)cc4)c3Cl)ncn2)n1 [Example 91, N-[4-chloro-5-(4-fluorophenyl)-1-methyl-1H-pyrazol-3-yl]-6-(3,5-dimethyl-1H-pyrazol-1-yl)pyrimidin-4-amine] | 5.73 nM |
| CCc1c(Nc2cc(-n3nc(C)c(CCO)c3C)ncn2)nn(C)c1-c1ccc(F)cc1 [Example 92, 2-[1-(6-{[4-ethyl-5-(4-fluorophenyl)-1-methyl-1H-pyrazol-3-yl]amino}pyrimidin-4-yl)-3,5-dimethyl-1H-pyrazol-4-yl]ethanol] | 820 nM |
| Cc1cc(C(F)F)n(-c2cc(Nc3c(C)nn(-c4ccc(F)cc4)c3C)ncn2)n1 [Example 93, 6-[5-(difluoromethyl)-3-methyl-1H-pyrazol-1-yl]-N-[1-(4-fluorophenyl)-3,5-dimethyl-1H-pyrazol-4-yl]pyrimidin-4-amine] | 29 nM |
| CCc1c(Nc2cc(-n3nc(CO)cc3C)ncn2)nn(C)c1-c1ccc(F)cc1 [Example 94, [1-(6-{[4-ethyl-5-(4-fluorophenyl)-1-methyl-1H-pyrazol-3-yl]amino}pyrimidin-4-yl)-5-methyl-1H-pyrazol-3-yl]methanol] | 2500 nM |

Reference: patent US11208400B2, “Substituted 6-(1H-pyrazol-1-yl)pyrimidin-4-amine derivatives and uses thereof” (Bayer Aktiengesellschaft, priority 2016, dated 2021)
